Experimental data from ChEMBL document CHEMBL2074315, “Role of human organic anion transporter 4 in the transport of ochratoxin A” (Biochim Biophys Acta, 2002).

How the values were obtained:
Assay type in all cases: functional, cell-based
[1] = target: T1, Solute carrier family 22 member 11 (Homo sapiens, UniProt Q9NSA0); experiment: TP_TRANSPORTER: inhibition of Ochratoxin A uptake (OTA: 1 uM, Aspartame: 200 uM) in OAT4-expressing S2 cells; settings: s2, 200 µM
T1 sequence (Q9NSA0 whole entry): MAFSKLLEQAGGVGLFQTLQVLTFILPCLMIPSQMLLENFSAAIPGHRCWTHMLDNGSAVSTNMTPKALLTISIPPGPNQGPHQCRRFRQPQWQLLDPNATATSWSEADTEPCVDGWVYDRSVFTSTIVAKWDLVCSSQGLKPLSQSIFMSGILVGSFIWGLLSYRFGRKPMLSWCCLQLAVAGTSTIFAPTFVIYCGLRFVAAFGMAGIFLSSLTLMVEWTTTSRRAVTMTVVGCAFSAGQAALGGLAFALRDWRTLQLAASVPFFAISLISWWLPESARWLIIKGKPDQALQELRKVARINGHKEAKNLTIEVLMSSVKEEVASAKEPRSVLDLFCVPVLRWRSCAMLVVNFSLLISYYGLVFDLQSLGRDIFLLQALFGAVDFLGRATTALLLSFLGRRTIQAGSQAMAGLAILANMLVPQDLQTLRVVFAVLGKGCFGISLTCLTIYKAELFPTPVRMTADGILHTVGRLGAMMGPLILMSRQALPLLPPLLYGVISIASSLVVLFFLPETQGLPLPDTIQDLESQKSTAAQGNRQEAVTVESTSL

[2] = target: T2, OAT4 (SLC22A11, solute carrier family 22 member 11) (Homo sapiens, UniProt Q9NSA0); experiment: TP_TRANSPORTER: uptake in OAT4-expressing S2 cells
T2 sequence (Q9NSA0 whole entry): T1 sequence (Q9NSA0 whole entry)

[3] = target: T1, Solute carrier family 22 member 11; experiment: TP_TRANSPORTER: inhibition of Ochratoxin A uptake (OTA: 1 uM, PAH: 200 uM) in OAT4-expressing S2 cells; settings: mouse, s2, 200 µM
[4] = target: T1, Solute carrier family 22 member 11; experiment: TP_TRANSPORTER: inhibition of Ochratoxin A uptake in OAT4-expressing S2 cells
[5] = target: T1, Solute carrier family 22 member 11; experiment: TP_TRANSPORTER: inhibition of Ochratoxin A uptake (OTA: 1 uM, Indomethacin: 200 uM) in OAT4-expressing S2 cells; settings: mouse, s2, 200 µM
[6] = target: T1, Solute carrier family 22 member 11; experiment: TP_TRANSPORTER: inhibition of Ochratoxin A uptake (OTA: 1 uM, PCG: 200 uM) in OAT4-expressing S2 cells; settings: s2, 200 µM

`COC(=O)[C@H](Cc1ccccc1)NC(=O)[C@@H](N)CC(=O)O` was tested, and the Activity [1] was “inhibitor [(at a rough estimate) 80 % of control]”.
Work on `C[C@@H]1Cc2c(Cl)cc(C(=O)N[C@@H](Cc3ccccc3)C(=O)O)c(O)c2C(=O)O1` [3R14S-OCHRATOXIN A] yielded a Km [2] of 22.9 µM.
In the case of `Nc1ccc(C(=O)NCC(=O)O)cc1` [AMINOHIPPURIC ACID], the Activity [3] is reported as “is not an inhibitor [-]”.
With `CC1=C2C(=CO[C@H](C)[C@H]2C)C(O)=C(C(=O)O)C1=O` [CITRININ] the Ki [4] was 366 µM.
In the case of `COc1ccc2c(c1)c(CC(=O)O)c(C)n2C(=O)c1ccc(Cl)cc1` [INDOMETHACIN], the Activity [5] is reported as “inhibitor [(at a rough estimate) 75 % of control]”.
Compound `CCCCCCCC(=O)O` [OCTANOIC ACID] has a Ki [4] of 236 µM.
For `CC1(C)S[C@@H]2[C@H](NC(=O)Cc3ccccc3)C(=O)N2[C@H]1C(=O)O` [PENICILLIN G], the Activity [6] was “inhibitor [(at a rough estimate) 20 % of control]”.
In the case of `CN1C(C(=O)Nc2ccccn2)=C(O)c2ccccc2S1(=O)=O` [PIROXICAM], the Ki [4] is reported as 108 µM.
